{"source": "ChEMBL document CHEMBL1201862", "about": "“PubChem BioAssay data set” (2004)", "key": {"[1]": {"target": "T1, Apoptotic protease-activating factor 1 (Homo sapiens, UniProt O14727)", "T1 sequence (O14727 whole entry)": "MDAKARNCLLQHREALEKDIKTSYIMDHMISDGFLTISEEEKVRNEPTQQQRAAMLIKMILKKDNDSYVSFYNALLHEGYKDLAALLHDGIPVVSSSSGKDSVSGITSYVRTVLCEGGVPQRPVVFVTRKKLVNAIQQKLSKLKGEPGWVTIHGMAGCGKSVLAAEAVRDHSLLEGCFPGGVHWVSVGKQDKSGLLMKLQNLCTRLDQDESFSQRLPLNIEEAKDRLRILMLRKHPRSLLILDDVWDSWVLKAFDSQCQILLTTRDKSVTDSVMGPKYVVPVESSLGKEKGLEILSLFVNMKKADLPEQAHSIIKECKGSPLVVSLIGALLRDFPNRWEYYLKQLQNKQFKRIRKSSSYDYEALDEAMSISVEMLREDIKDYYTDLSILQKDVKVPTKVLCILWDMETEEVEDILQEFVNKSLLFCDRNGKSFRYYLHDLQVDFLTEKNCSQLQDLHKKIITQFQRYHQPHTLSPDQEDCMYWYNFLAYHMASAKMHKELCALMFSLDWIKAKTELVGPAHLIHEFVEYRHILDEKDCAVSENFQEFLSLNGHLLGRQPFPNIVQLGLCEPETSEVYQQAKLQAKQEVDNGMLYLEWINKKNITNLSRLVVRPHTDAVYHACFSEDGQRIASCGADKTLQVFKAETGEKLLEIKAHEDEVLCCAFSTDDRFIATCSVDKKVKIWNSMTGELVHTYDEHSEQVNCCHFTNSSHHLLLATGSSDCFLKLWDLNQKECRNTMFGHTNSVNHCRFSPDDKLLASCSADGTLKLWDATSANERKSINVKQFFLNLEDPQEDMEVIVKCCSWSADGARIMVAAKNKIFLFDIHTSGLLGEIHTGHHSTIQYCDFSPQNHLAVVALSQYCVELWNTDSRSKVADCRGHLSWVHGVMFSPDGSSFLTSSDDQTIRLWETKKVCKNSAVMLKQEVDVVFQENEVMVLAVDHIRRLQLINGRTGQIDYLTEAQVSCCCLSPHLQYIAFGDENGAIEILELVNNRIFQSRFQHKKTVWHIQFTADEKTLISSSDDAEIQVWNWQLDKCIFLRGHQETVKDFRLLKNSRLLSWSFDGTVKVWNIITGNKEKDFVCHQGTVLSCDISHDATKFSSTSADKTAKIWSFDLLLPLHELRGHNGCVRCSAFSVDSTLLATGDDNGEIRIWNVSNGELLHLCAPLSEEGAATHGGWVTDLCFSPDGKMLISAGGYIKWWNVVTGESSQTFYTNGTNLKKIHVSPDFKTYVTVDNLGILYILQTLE", "format": "functional"}, "Caspase-6": {"target": "T2, Caspase-6 (Homo sapiens, UniProt P55212)", "T2 sequence (P55212 whole entry)": "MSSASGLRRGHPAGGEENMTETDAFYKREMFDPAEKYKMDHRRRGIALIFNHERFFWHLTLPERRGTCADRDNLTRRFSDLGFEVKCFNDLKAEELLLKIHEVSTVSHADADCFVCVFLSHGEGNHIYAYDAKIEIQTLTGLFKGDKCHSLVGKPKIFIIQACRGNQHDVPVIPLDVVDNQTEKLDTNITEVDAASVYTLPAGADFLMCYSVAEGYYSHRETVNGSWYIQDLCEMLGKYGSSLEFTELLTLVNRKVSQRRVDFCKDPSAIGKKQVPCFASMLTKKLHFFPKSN", "experiment": "inhibition of CASP6 peptide cleavage – biochemical, VEID-R110 fluorescence, cherry-pick, dose response (AID 720632)"}, "[2]": {"experiment": "CellTiter-Glo luminescence survival assay, SW480 colon tumor line, concentration-response curve, half-maximal inhibitory concentration (AID 1117338)", "format": "functional"}, "[3]": {"experiment": "cytotoxicity toward HT-29 cells – cell-based, CellTiter-Glo luminescence, IC50, dose response (AID 1117330)", "format": "functional"}, "[4]": {"experiment": "RKO cell viability reduction, dose response, CellTiter-Glo luminescence (AID 1117322)", "format": "functional"}, "[5]": {"target": "T3, Rac GTPase-activating protein 1 (Homo sapiens, UniProt Q9H0H5)", "T3 sequence (Q9H0H5 whole entry)": "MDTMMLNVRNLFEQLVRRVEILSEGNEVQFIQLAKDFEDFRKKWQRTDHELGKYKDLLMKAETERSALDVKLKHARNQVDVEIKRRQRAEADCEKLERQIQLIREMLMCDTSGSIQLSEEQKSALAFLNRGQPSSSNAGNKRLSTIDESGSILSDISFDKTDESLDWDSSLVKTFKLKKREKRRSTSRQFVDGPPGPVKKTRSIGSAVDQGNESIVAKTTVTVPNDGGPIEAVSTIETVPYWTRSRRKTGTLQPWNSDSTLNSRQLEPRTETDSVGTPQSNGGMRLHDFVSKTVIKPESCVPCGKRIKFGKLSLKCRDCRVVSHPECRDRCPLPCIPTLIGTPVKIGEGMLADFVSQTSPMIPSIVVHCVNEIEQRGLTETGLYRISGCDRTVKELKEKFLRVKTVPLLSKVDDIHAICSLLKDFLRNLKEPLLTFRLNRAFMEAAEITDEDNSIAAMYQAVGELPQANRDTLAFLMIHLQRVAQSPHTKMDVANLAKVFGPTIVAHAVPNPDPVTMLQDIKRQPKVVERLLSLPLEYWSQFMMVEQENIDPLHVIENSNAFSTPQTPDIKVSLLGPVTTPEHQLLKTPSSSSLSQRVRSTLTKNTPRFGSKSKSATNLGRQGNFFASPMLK", "experiment": "blockers of MgcRacGAP-driven Rac1 GTP hydrolysis – biochemical, ADP Hunter fluorescence, primary and confirmatory, confirmation (AID 624330)", "format": "functional"}}, "note": "Activity calls are given as the source filed them.", "data": [{"smiles": "CCCOc1cc2c(C#N)c(N3CCCC3)nc(N)c2c(N)n1", "values": [{"measurement": "IC50", "setting": "[1]", "value": "15 µM (active)"}, {"measurement": "AC50", "setting": "Caspase-6", "value": "16.9 µM (active)"}]}, {"smiles": "Oc1ccc(/C=N/Nc2cc(N3CCCC3)nc(N3CCCC3)n2)cc1O", "values": [{"measurement": "IC50", "setting": "[1]", "value": "2.56 µM (active)"}]}, {"smiles": "Cc1cc2nc3ccc(N(C)C)cc3[s+]c2cc1N", "note": "[TOLONIUM CHLORIDE]", "values": [{"measurement": "IC50", "setting": "[2]", "value": "1.4 µM (active)"}, {"measurement": "IC50", "setting": "[3]", "value": "5.06 µM (inactive)"}, {"measurement": "IC50", "setting": "[4]", "value": "0.996 µM (active)"}, {"measurement": "IC50", "setting": "[5]", "value": "32.4 µM (active)"}]}]}
